# Source: patent US8637556B2, “Linked Myc-max small molecule inhibitors” (University of Pittsburgh—Of the Commonwealth System of …, priority 2009, dated 2014)
# Experiments:
# [1] = molecular target: T1, c-Myc353-437 (monomeric c-Myc bHLH-ZIP) (Homo sapiens, UniProt P01106); experiment: Fluorescence polarization titration, c-Myc bHLH-ZIP binding; details: Table 1; FP of nitrobenzofurazan moiety, c-Myc353-437; read-out: KD (c-Myc affinity, bivalent)
# T1 construct: recombinant monomeric c Myc bHLH-ZIP (amino acids 353-437); 6xHis with TEV site (N, cleaved yes); made in house; host or cells: E. coli BL21DE3(pLysS)
# T1 sequence (P01106 368-452): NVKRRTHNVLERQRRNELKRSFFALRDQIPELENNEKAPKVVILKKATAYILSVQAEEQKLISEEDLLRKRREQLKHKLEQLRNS
# From the text: (§1) A c-Myc353-437 full-length bHLH-ZIP domain and its truncated version c-Myc390-439 were produced from the c-Myc/pET SKB3 construct, kindly supplied by Dr. S. K. Nair (University of Illinois, Urbana-Champaign), by insertion into the pET151D vector, encoding an N-terminal hexahistidine (6× His), separated by a TEV protease digestion site, with the TOPO® ligation system, and over-expressed in E. coli BL21DE3(pLysS). The 6× His tagged human Max isoform p21, with low homodimerization affinity^70, cloned into the pQE10 vector (Qiagen, Inc.), was over-expressed in E. coli M15(pRep4). Bacterial cultures were grown at 37° C. in LB medium to OD600≈0.8, then induced with 0.5 mM IPTG for 5 hours. Proteins were purified by Ni-agarose chromatography with a pH gradient elution. The 6× His tag of c-MYC353-437 and c-Myc390-439 was cleaved using TEV protease (the TEV protease was expressed in a pET24 vector [courtesy of S. K. Nair] and purified by Ni-agarose chromatography under native conditions). All the proteins were further purified by HPLC and lyophilized. Protein concentrations were determined by measurement of OD280. The synthetic peptide c-Myc363-381 is described in Follis, A. V., Hammoudeh, D. I., Wang, H., Prochownik, E & Metallo, S. J. Structural rationale for the coupled binding and unfolding of the c-Myc oncoprotein by small molecules. Chemistry & Biology 15, 1149-1155 (2008).
# Samples were analyzed in a Photon Technology International QuantaMaster fluorimeter (Birmingham, N.J.) equipped with polymer sheet polarizers. Titration experiments were performed upon serial dilution of 1:1 equimolar solution of inhibitor and either c-Myc353-437, c-Myc390-439 or c-Myc363-381 in a 1×PBS buffer (137 mM NaCl, 2.7 mM KCl, 4.3 mM Na2HPO4, 1.4 mM KH2PO4, pH=7.4), 5% DMSO, over concentrations ranging between 200 μM and 1.5 nM. Excitation and emission wavelengths were independently determined for each inhibitor. Reported data represent the average of at least three independent experiments. Data were fit to a quadratic equation derived from the thermodynamic expression of binding equilibrium:
# [formula] where [C]0 represents the total concentration of inhibitor and of c-Myc peptide. The value of KD was determined from the experimental polarization data by fitting to Eq. 2 using KaleidaGraph (Synergy Software, Reading, Pa.) where pol0 is the polarization in the absence of binding and Δpol is the total change in polarization (Park, S. H. & Raines, R. T. Fluorescence polarization assay to quantify protein-protein interactions. Methods in Molecular Biology 261, 161-6 (2004)).
# [formula] Due to the very tight binding of some of the tested compounds, it was impossible to perform a full binding titration with an acceptable fluorescence intensity, therefore the polo parameter was experimentally determined from samples of each compound in the absence of c-Myc353-437 at a concentration of 25 μM. Binding specificity experiments were performed by monitoring the FP of 10 μM inhibitors solutions in the above-described buffer in the presence of equimolar p21 Max. […] Circular Dichroism.
# Also in this case the c-Myc binding affinity was little affected by the introduction of the linker chain (Table 1, FIG. 11).
# We then measured the affinity of the synthesized bivalent inhibitors, by monitoring the FP of the compounds nitrobenzofurazan moiety. […] The estimated free energy of binding of the bivalent compounds was roughly proportional to the sum of those of their monovalent components. In the thermodynamic analysis of multivalent binding a ΔG^s term is used to relate the free energy of binding of a multivalent compound to the sum of those of its monovalent components. This term implies the diverse energy contributions resulting from the linking of independent binding components. The ΔG^s term generally constitutes a negative contribution to the binding affinity of distinct binding components connected by a flexible linker to a given target.
# c-Myc 363-381 = molecular target: T2, c-Myc 363-381 (Homo sapiens, UniProt P01106); experiment: Fluorescence polarization titration, truncated c-Myc peptide 363-381; details: Table 2; segment with binding site of 1; read-out: Binding affinity to c-Myc 363-381
# T2 construct: The synthetic peptide c-Myc363-381 is described in Follis; host or cells: synthetic peptide
# From the text: as §1, with “The synthetic peptide c-Myc363-381 is described in Follis, A. V., Hammoudeh, D. I., Wang, H., Prochownik, E & Metallo, S. J. Structural rationale for the coupled binding and unfolding of the c-Myc oncoprotein by small molecules. Chemistry & Biology 15, 1149-1155 (2008).” left out
# Samples were analyzed in a Photon Technology International QuantaMaster fluorimeter (Birmingham, N.J.) equipped with polymer sheet polarizers. […] Excitation and emission wavelengths were independently determined for each inhibitor. […]
# c-Myc 400-439 = molecular target: T3, c-Myc 400-439 (Homo sapiens, UniProt P01106); experiment: Fluorescence polarization titration, truncated c-Myc segment; details: Table 2; segment with binding site of 2; read-out: Binding affinity to c-Myc 400-439
# T3 construct: its truncated version c-Myc390-439 were produced from the c-Myc/pET SKB3 construct; 6xHis with TEV site (N, cleaved yes); made in house; host or cells: E. coli BL21DE3(pLysS)
# T3 sequence (P01106 405-454): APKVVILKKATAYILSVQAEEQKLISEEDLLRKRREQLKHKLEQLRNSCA
Compound,Kd [1] [nM],Kd (c-Myc 363-381) [nM],Kd (c-Myc 400-439) [nM]
"O=C1NC(=S)S/C1=C\c1ccc(C(=O)NCCCCCNC(=O)c2cccc(Nc3ccc([N+](=O)[O-])c4nonc34)c2)cc1 [compound 12, N-[5-({3-[(7-nitro-2,1,3-benzoxadiazol-4-yl)amino]phenyl}formamido)pentyl]-4-{[(5Z)-4-oxo-2-sulfanylidene-1,3-thiazolidin-5-ylidene]methyl}benzamide]",400 ± 100,,
O=C1NC(=S)SC1=Cc1ccc(C(=O)NCCCCCNC(=O)c2ccc(Nc3ccc([N+](=O)[O-])c4nonc34)cc2)cc1 [compound 13],4.7 ± 0.8,0.8 ± 0.6,53 ± 16
"CCc1ccc(/C=C2\SC(=O)N(CCCCCCNC(=O)c3ccccc3Nc3ccc([N+](=O)[O-])c4nonc34)C2=O)cc1 [compound 16, N-{6-[(5Z)-5-[(4-ethylphenyl)methylidene]-2,4-dioxo-1,3-thiazolidin-3-yl]hexyl}-2-[(7-nitro-2,1,3-benzoxadiazol-4-yl)amino]benzamide amine]",2.2 ± 0.2,,
CCc1ccc(C=C2SC(=O)N(CCCCCCNC(=O)c3cccc(Nc4ccc([N+](=O)[O-])c5nonc45)c3)C2=O)cc1 [compound 17],110 ± 20,,
